Values joined by “and” are separate entries in the source; they are usually repeats but may differ in a detail not shown here. Equal values may be shown once. Toxic doses and inconclusive results are not listed.
Tested on: BDF1 mice, P388 leukemia ip, median survival T/C
Assay: NCI In Vivo Anticancer Drug Screen. Data for tumor model P388 Leukemia (intraperitoneal) in B6D2F1 (BDF1) mice
Details: endpoint: median survival time, higher = longer survival
Procedure, shortened: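 Each value expresses how treatment altered survival: treated-mouse outcome over vehicle-mouse outcome, both groups bearing the transplanted tumour.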

[1] = dose: 50.0 mg/kg/injection, schedule: Q01DX009 (ip), vehicle: saline with Tween-80
[2] = dose: 100.0 mg/kg/injection, schedule: Q01DX009 (ip), vehicle: saline with Tween-80
[3] = dose: 200.0 mg/kg/injection, schedule: Q01DX009 (ip), vehicle: saline with Tween-80
[4] = dose: 400.0 mg/kg/injection, schedule: Q01DX009 (ip), vehicle: saline with Tween-80
[5] = dose: 100.0 mg/kg/injection, schedule: Q04DX003 (ip), vehicle: saline
[6] = dose: 200.0 mg/kg/injection, schedule: Q04DX003 (ip), vehicle: saline
[7] = dose: 400.0 mg/kg/injection, schedule: Q04DX003 (ip), vehicle: saline
[8] = dose: 12.5 mg/kg/injection, schedule: Q04DX003 (ip), vehicle: saline
[9] = dose: 25.0 mg/kg/injection, schedule: Q01DX009 (ip), vehicle: saline
[10] = dose: 12.5 mg/kg/injection, schedule: Q01DX009 (ip), vehicle: saline
[11] = dose: 50.0 mg/kg/injection, schedule: Q01DX009 (ip), vehicle: saline
[12] = dose: 100.0 mg/kg/injection, schedule: Q01DX009 (ip), vehicle: saline
[13] = dose: 200.0 mg/kg/injection, schedule: Q01DX009 (ip), vehicle: saline
[14] = dose: 100.0 mg/kg/injection, schedule: Q01DX005 (ip), vehicle: saline with Tween-80
[15] = dose: 200.0 mg/kg/injection, schedule: Q01DX005 (ip), vehicle: saline with Tween-80

N#CCc1ccc2c(c1)[nH]c1ccccc12
T/C (dose: 50.0 mg/kg/injection, schedule: Q04DX003 (ip), vehicle: saline sonified): 104 % of control | T/C (dose: 100.0 mg/kg/injection, schedule: Q04DX003 (ip), vehicle: saline sonified): 109 % of control | T/C (dose: 200.0 mg/kg/injection, schedule: Q04DX003 (ip), vehicle: saline sonified): 104 % of control

O=C1CC2(C(=O)N1CN(Cc1ccccc1)Cc1ccccc1)c1ccccc1-c1ccccc12
T/C (dose: 100.0 mg/kg/injection, schedule: Q04DX002 (ip), vehicle: saline with Tween-80): 87 % of control | T/C (dose: 200.0 mg/kg/injection, schedule: Q04DX002 (ip), vehicle: saline with Tween-80): 86 % of control | T/C (dose: 400.0 mg/kg/injection, schedule: Q04DX002 (ip), vehicle: saline with Tween-80): 93 % of control

O=C(NC1CCOC1=O)OCc1ccccc1 (configuration not stated)
T/C [1]: 100 % of control | T/C [2]: 100 % of control | T/C [3]: 100 % of control | T/C [4]: 98 % of control

O=[N+]([O-])c1ccc(N2CCN(c3ccc(Cl)cc3)CC2)c2c1no[n+]2[O-]
T/C (dose: 15.0 mg/kg/injection, schedule: Q01DX009 (ip), vehicle: saline with Tween-80): 100 % of control | T/C (dose: 30.0 mg/kg/injection, schedule: Q01DX009 (ip), vehicle: saline with Tween-80): 99 % of control | T/C (dose: 60.0 mg/kg/injection, schedule: Q01DX009 (ip), vehicle: saline with Tween-80): 99 % of control

CCOc1ccc2nc3cc(N)ccc3c(N)c2c1
T/C (dose: 44.0 mg/kg/injection, schedule: Q04DX003 (ip), vehicle: saline): 118 % of control | T/C (dose: 66.0 mg/kg/injection, schedule: Q04DX003 (ip), vehicle: saline): 118 % of control | T/C [5]: 118 % of control | T/C [6]: 117 % of control | T/C [7]: 86 % of control

CC1SCC(=O)N1c1nccs1 (configuration not stated)
T/C [1]: 99 % of control | T/C [2]: 100 % of control | T/C [3]: 102 % of control

CCC(C(=O)O)c1ccccc1 (configuration not stated)
T/C [1]: 90 % of control | T/C [3]: 109 % of control

CC(C)C(=O)c1ccc([N+](=O)[O-])o1
T/C [1]: 115 % of control | T/C [2]: 111 % of control | T/C (dose: 100.0 mg/kg/injection, schedule: Q04DX003 (ip), vehicle: saline with Tween-80): 107 % of control | T/C [3]: 109 % of control | T/C (dose: 200.0 mg/kg/injection, schedule: Q04DX003 (ip), vehicle: saline with Tween-80): 116 % of control | T/C [4]: 107 % of control | T/C (dose: 400.0 mg/kg/injection, schedule: Q04DX003 (ip), vehicle: saline with Tween-80): 109 % of control

COC(=O)C1=C(C)NC(C)=C(C(=O)OC)C(N2C(=O)CCC2=O)C1 (configuration not stated)
T/C (dose: 12.5 mg/kg/injection, schedule: Q01DX009 (ip), vehicle: saline with Tween-80): 97 % of control | T/C (dose: 25.0 mg/kg/injection, schedule: Q01DX009 (ip), vehicle: saline with Tween-80): 94 % of control | T/C [1]: 95 % of control and 123 % of control | T/C [2]: 94 % of control and 107 % of control | T/C [3]: 107 % of control

O=C(Nc1ccc(C2=NCCCN2)cc1)c1ccc(C(=O)Nc2ccc(C3=NCCCN3)cc2)nc1
T/C (dose: 0.85 mg/kg/injection, schedule: Q01DX009 (ip), vehicle: saline): 92 % of control | T/C (dose: 1.3 mg/kg/injection, schedule: Q01DX009 (ip), vehicle: saline): 103 % of control | T/C (dose: 3.0 mg/kg/injection, schedule: Q01DX009 (ip), vehicle: saline): 155 % of control | T/C (dose: 5.0 mg/kg/injection, schedule: Q01DX009 (ip), vehicle: saline): 175 % of control | T/C (dose: 8.0 mg/kg/injection, schedule: Q01DX009 (ip), vehicle: saline): 195 % of control | T/C (dose: 10.0 mg/kg/injection, schedule: Q01DX009 (ip), vehicle: saline with Tween-80): 122 % of control | T/C (dose: 12.0 mg/kg/injection, schedule: Q01DX009 (ip), vehicle: saline): 153 % of control | T/C [8]: 115 % of control | T/C (dose: 16.5 mg/kg/injection, schedule: Q04DX003 (ip), vehicle: saline): 118 % of control | T/C (dose: 18.0 mg/kg/injection, schedule: Q01DX009 (ip), vehicle: saline): 226 % of control | T/C [9]: 196 % of control

O=[N+]([O-])c1ccc(/C=N/c2nccs2)o1
T/C (dose: 3.12 mg/kg/injection, schedule: Q04DX003 (ip), vehicle: saline): 107 % of control | T/C (dose: 6.25 mg/kg/injection, schedule: Q04DX003 (ip), vehicle: saline): 106 % of control and 107 % of control | T/C [10]: 92 % of control | T/C [8]: 92 % of control and 107 % of control and 115 % of control | T/C [9]: 90 % of control | T/C (dose: 25.0 mg/kg/injection, schedule: Q04DX003 (ip), vehicle: saline): 107 % of control and 111 % of control and 115 % of control | T/C [11]: 94 % of control | T/C (dose: 50.0 mg/kg/injection, schedule: Q04DX003 (ip), vehicle: saline): 101 % of control and 107 % of control | T/C [12]: 86 % of control | T/C [5]: 109 % of control and 110 % of control | T/C [13]: 98 % of control

COCCCn1c(C(Cl)(Cl)Cl)nn2c(=O)c3ccccc3nc2c1=O
T/C [2]: 87 % of control | T/C [3]: 90 % of control

CS(=O)(=O)c1ncc(Br)cn1
T/C (dose: 50.0 mg/kg/injection, schedule: Q01DX005 (ip), vehicle: saline with Tween-80): 103 % of control | T/C [11]: 111 % of control | T/C [14]: 109 % of control | T/C [12]: 124 % of control | T/C [15]: 117 % of control | T/C [13]: 120 % of control | T/C (dose: 400.0 mg/kg/injection, schedule: Q01DX005 (ip), vehicle: saline with Tween-80): 120 % of control

Cc1noc(C)c1CON
T/C [10]: 91 % of control | T/C [9]: 91 % of control | T/C [11]: 95 % of control

Cc1c(CO)[nH]c(=S)[nH]c1=O
T/C (dose: 100.0 mg/kg/injection, schedule: Q01DX001 (ip), vehicle: Klucel (hydroxypropylcellulose) (HPC)): 90 % of control | T/C (dose: 200.0 mg/kg/injection, schedule: Q01DX001 (ip), vehicle: Klucel (hydroxypropylcellulose) (HPC)): 104 % of control | T/C (dose: 400.0 mg/kg/injection, schedule: Q01DX001 (ip), vehicle: Klucel (hydroxypropylcellulose) (HPC)): 95 % of control

O=NN(CCCl)C(=O)Nc1ccc2[nH]c3ccccc3c2c1
T/C (dose: 30.0 mg/kg/injection, schedule: Q01DX009 (ip), vehicle: Klucel (hydroxypropylcellulose) (HPC)): 183 % of control | T/C (dose: 45.0 mg/kg/injection, schedule: Q01DX009 (ip), vehicle: Klucel (hydroxypropylcellulose) (HPC)): 175 % of control | T/C (dose: 65.0 mg/kg/injection, schedule: Q01DX009 (ip), vehicle: Klucel (hydroxypropylcellulose) (HPC)): 183 % of control and 192 % of control | T/C (dose: 130.0 mg/kg/injection, schedule: Q01DX009 (ip), vehicle: Klucel (hydroxypropylcellulose) (HPC)): 208 % of control

CC([NH-])C(=O)O.O=C(O)CN(CC(=O)O)CC(=O)O.[Co+2]
T/C [11]: 110 % of control and 113 % of control | T/C (dose: 66.0 mg/kg/injection, schedule: Q01DX009 (ip), vehicle: saline): 114 % of control | T/C [5]: 87 % of control | T/C (dose: 150.0 mg/kg/injection, schedule: Q01DX009 (ip), vehicle: saline): 104 % of control | T/C [13]: 104 % of control | T/C [6]: 104 % of control | T/C [7]: 91 % of control

Nc1nc(SCc2ccccc2)c2[nH]cnc2n1
T/C (dose: 8.0 mg/kg/injection, schedule: Q01DX010 (ip), vehicle: saline): 90 % of control and 100 % of control | T/C (dose: 16.0 mg/kg/injection, schedule: Q01DX010 (ip), vehicle: saline): 90 % of control and 105 % of control | T/C (dose: 32.0 mg/kg/injection, schedule: Q01DX010 (ip), vehicle: saline): 90 % of control and 110 % of control | T/C (dose: 64.0 mg/kg/injection, schedule: Q01DX010 (ip), vehicle: saline): 104 % of control and 120 % of control

O=C(Oc1ccc([N+](=O)[O-])cc1)c1ccc(C[P+](c2ccccc2)(c2ccccc2)c2ccccc2)cc1
T/C [12]: 109 % of control | T/C [5]: 104 % of control | T/C [13]: 100 % of control | T/C [6]: 100 % of control | T/C (dose: 400.0 mg/kg/injection, schedule: Q01DX009 (ip), vehicle: saline): 100 % of control | T/C [7]: 95 % of control

CCOC(=O)c1sc2nc(C)cc(C)c2c1N
T/C [14]: 100 % of control | T/C [15]: 110 % of control

CCOC(=O)COc1ccc(C=O)cc1
T/C (dose: 100.0 mg/kg/injection, schedule: Q04DX003 (ip), vehicle: Klucel (hydroxypropylcellulose) (HPC)): 103 % of control | T/C (dose: 400.0 mg/kg/injection, schedule: Q04DX003 (ip), vehicle: Klucel (hydroxypropylcellulose) (HPC)): 92 % of control
